Measured values from PMC13289949 (Biochemistry, 2025).
Like-named read-outs stand apart in the source and are kept apart here.

Experiments:
MtbFDTS [1] = target: T1, MtbFDTS (Mycobacterium tuberculosis, UniProt P9WG57); experiment: MtbFDTS oxidase reaction followed by NADPH consumption; format: biochemical; settings: for increase in the rate of NADPH consumption: relative to control without ligand, >10× KACT, up to 250 μM ligand; for effect on the oxidase reaction (NADPH oxidation rate), in words: aerobic, no CH2H4folate, ligand up to 250 μM
MtbFDTS [2] = target: T1, MtbFDTS; experiment: Hydrogen peroxide formation from MtbFDTS oxidase reaction; format: biochemical; settings: NADPH and 100 μM plumbagin versus NADPH only
FAD-MtbFDTS complex = FAD-MtbFDTS complex (Mycobacterium tuberculosis, UniProt P9WG57); experiment: biochemical; format: binding
Chain of FAD-MtbFDTS complex (P9WG57 whole entry, one chain of several): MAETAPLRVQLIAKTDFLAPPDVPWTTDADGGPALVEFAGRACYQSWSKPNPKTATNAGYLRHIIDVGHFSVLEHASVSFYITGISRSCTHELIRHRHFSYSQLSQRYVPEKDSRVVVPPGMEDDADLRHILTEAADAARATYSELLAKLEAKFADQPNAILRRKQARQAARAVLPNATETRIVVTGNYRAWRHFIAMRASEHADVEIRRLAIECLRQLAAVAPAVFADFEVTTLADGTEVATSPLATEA

T1 sequence (P9WG57 whole entry): as the sequence (P9WG57 whole entry, one chain of several) above

5-hydroxy-2,4-naphthoquinone [plumbagin]
increase in the rate of NADPH consumption (MtbFDTS [1]): 5–10 fold
rate increase of hydrogen peroxide formation (initial velocity) (MtbFDTS [2]): ~10 fold

Nc1nc(=O)c2c([nH]1)NCC(CNc1ccc(C(=O)N[C@@H](CCC(=O)O)C(=O)O)cc1)N2C=O (mixture of isomers) [folinic acid]
effect on the oxidase reaction (NADPH oxidation rate), in words (MtbFDTS [1]): display inhibition
Kd (FAD-MtbFDTS complex; read-out: apparent Kd, binding to the FAD-MtbFDTS complex): 1.3 ± 0.2 µM
affinity of folinic acid for the dUMP-FAD-MtbFDTS ternary complex, in words (FAD-MtbFDTS complex; saturating concentration of dUMP, compared with FAD-MtbFDTS): much higher affinity

O=c1[nH]c(=O)n([C@H]2C[C@H](O)[C@@H](COP(=O)(O)O)O2)cc1F [5-FdUMP, 5-fluoro-deoxyuridylate]
affinity to the FAD-MtbFDTS complex, in words (FAD-MtbFDTS complex; compared with dUMP): less affinity

Cc1cn([C@H]2C[C@H](O)[C@@H](COP(=O)(O)O)O2)c(=O)[nH]c1=O [dTMP, 2′-deoxythymidine-5′-monophosphate]
effect on the oxidase reaction (NADPH oxidation rate), in words (MtbFDTS [1]): activated

O=c1ccn([C@H]2C[C@H](O)[C@@H](COP(=O)(O)O)O2)c(=O)[nH]1 [dUMP, 2′-deoxyuridine-5′-monophosphate]
effect on the oxidase reaction (NADPH oxidation rate), in words (MtbFDTS [1]): increase in rate
Kd (FAD-MtbFDTS complex): 1.1 ± 0.5 µM

O=C1C=C(O)C(=O)c2ccccc21 [lawsone, 2-hydroxy-1,4-naphthoquinone]
increase in the rate of NADPH consumption (MtbFDTS [1]): 5–10 fold

CN(Cc1cnc2nc(N)nc(N)c2n1)c1ccc(C(=O)N[C@@H](CCC(=O)O)C(=O)O)cc1 [methotrexate]
effect on the oxidase reaction (NADPH oxidation rate), in words (MtbFDTS [1]): display inhibition
